Test results: ChEMBL document CHEMBL2331142, “Synthesis of new triazole acetamides with inotropic effects” (Bioorg Med Chem Lett, 2013)
The source made the active and inactive calls. No cut-off for these calls is given here.

Tests used:
Oryctolagus cuniculus [1] = species on record: Oryctolagus cuniculus; test: (§1) Positive inotropic effect in rabbit left atrium assessed as increase in stroke volume at 3 x 10^-5 M measured for 2 mins relative to control; format: functional; conditions: Cardiac atrium
[2] = as §1; format: functional, Oryctolagus cuniculus, Cardiac atrium
Oryctolagus cuniculus [3] = species on record: Oryctolagus cuniculus; test: Chronotropic effect in rabbit heart assessed as change in heart rate at 3 x 10^-5 M by electrocardiogram analysis relative to control; format: ADME, organism-based; conditions: in vivo, 30 µM
[4] = Ratio of compound activity to milrinone activity for increase in stroke volume in rabbit left atrium at 3 x 10^-5 M; format: functional, Oryctolagus cuniculus, Cardiac atrium
Oryctolagus cuniculus [5] = species on record: Oryctolagus cuniculus; test: Positive inotropic effect in rabbit left atrium assessed as increase in stroke volume at 1 x 10^-4 M measured for 2 mins; format: functional, tissue-based; conditions: Cardiac atrium

SMILES	Activity [2] [%]	also measured
O=C(CN1CCN(Cc2ccccc2Br)CC1)Nc1ccc2c(c1)CCc1nnc(-c3cccc(Cl)c3)n1-2	–	Activity (Oryctolagus cuniculus [1]): inactive
CCCCCCN1CCN(CC(=O)Nc2ccc3c(c2)CCc2nnc(-c4cccc(Cl)c4)n2-3)CC1	–	Activity (Oryctolagus cuniculus [1]): inactive
CCCCCN1CCN(CC(=O)Nc2ccc3c(c2)CCc2nnc(-c4cccc(Cl)c4)n2-3)CC1	0.8	–
O=C(CN1CCN(Cc2ccc(F)cc2)CC1)Nc1ccc2c(c1)CCc1nnc(-c3cccc(Cl)c3)n1-2	16.49	Activity (Oryctolagus cuniculus [3]): Non-toxic
Cc1ccc(CN2CCN(CC(=O)Nc3ccc4c(c3)CCc3nnc(-c5cccc(Cl)c5)n3-4)CC2)cc1	4.25	–
CCCCN1CCN(CC(=O)Nc2ccc3c(c2)CCc2nnc(-c4cccc(Cl)c4)n2-3)CC1	2.33	–
O=C(CN1CCN(Cc2cccc(F)c2)CC1)Nc1ccc2c(c1)CCc1nnc(-c3cccc(Cl)c3)n1-2	6.33	–
O=C(CN1CCN(Cc2ccc(Cl)cc2)CC1)Nc1ccc2c(c1)CCc1nnc(-c3cccc(Cl)c3)n1-2	7.22	–
O=C(CN1CCN(Cc2ccc(Cl)c(Cl)c2)CC1)Nc1ccc2c(c1)CCc1nnc(-c3cccc(Cl)c3)n1-2	–	Activity (Oryctolagus cuniculus [1]): inactive
O=C(CN1CCN(Cc2ccccc2F)CC1)Nc1ccc2c(c1)CCc1nnc(-c3cccc(Cl)c3)n1-2	20.29	Activity (Oryctolagus cuniculus [3]): Non-toxic; Ratio [4]: 8.2; Activity (Oryctolagus cuniculus [5]): Active
O=C(CN1CCN(Cc2ccccc2)CC1)Nc1ccc2c(c1)CCc1nnc(-c3ccccc3Cl)n1-2	15.62	Activity (Oryctolagus cuniculus [3]): Non-toxic
O=C(CN1CCN(Cc2ccccc2Cl)CC1)Nc1ccc2c(c1)CCc1nnc(-c3cccc(Cl)c3)n1-2	0.8	–
O=C(CN1CCN(Cc2ccccc2)CC1)Nc1ccc2c(c1)CCc1nnc(-c3cccc(Cl)c3)n1-2	8.07	–
COc1ccc(CN2CCN(CC(=O)Nc3ccc4c(c3)CCc3nnc(-c5ccccc5Cl)n3-4)CC2)cc1	9.12	–
O=C(CN1CCN(Cc2cccc(Cl)c2)CC1)Nc1ccc2c(c1)CCc1nnc(-c3ccccc3Cl)n1-2	2.18	–
O=C(CN1CCN(Cc2ccc(F)cc2)CC1)Nc1ccc2c(c1)CCc1nnc(-c3ccccc3Cl)n1-2	4.58	–
O=C(CN1CCN(Cc2ccccc2F)CC1)Nc1ccc2c(c1)CCc1nnc(-c3ccccc3Cl)n1-2	2.39	–
O=C(CN1CCN(Cc2cccc(Cl)c2)CC1)Nc1ccc2c(c1)CCc1nnc(-c3cccc(Cl)c3)n1-2	15.75	Activity (Oryctolagus cuniculus [3]): Toxic
O=C(CN1CCN(Cc2cccc(Br)c2)CC1)Nc1ccc2c(c1)CCc1nnc(-c3cccc(Cl)c3)n1-2	–	Activity (Oryctolagus cuniculus [1]): inactive
Cc1[nH]c(=O)c(C#N)cc1-c1ccncc1 [MILRINONE]	2.46	–
CCCCCCCCN1CCN(CC(=O)Nc2ccc3c(c2)CCc2nnc(-c4cccc(Cl)c4)n2-3)CC1	–	Activity (Oryctolagus cuniculus [1]): inactive
O=C(CN1CCN(Cc2ccc(Cl)cc2Cl)CC1)Nc1ccc2c(c1)CCc1nnc(-c3cccc(Cl)c3)n1-2	–	Activity (Oryctolagus cuniculus [1]): inactive
COc1ccc(CN2CCN(CC(=O)Nc3ccc4c(c3)CCc3nnc(-c5cccc(Cl)c5)n3-4)CC2)cc1	16.84	Activity (Oryctolagus cuniculus [3]): Non-toxic; Activity (Oryctolagus cuniculus [5]): Active
O=C(CN1CCN(Cc2ccc(Br)cc2)CC1)Nc1ccc2c(c1)CCc1nnc(-c3cccc(Cl)c3)n1-2	2.31	–
